Data on three compounds can be found in patent US20220088031A1, “METHODS AND COMPOSITIONS FOR TREATING RESISTANT AND RECURRENT FORMS OF CANCER” (Health Research, Inc., priority 2019, published 2022).

Common to all, as to format: cell-based, human
The test system of assay [1] is E006AA cells. Briefly: Clonogenic assay. The protocol:
Clonogenic assay: PCa cells were seeded in each well of 6 well cell culture plates. Cells were treated and plates were incubated in a CO2 cell culture incubator for 6 more days. Colonies were fixed in 10% formalin first and stained with 0.5% crystal violet solution. Plates were dried and pictures were captured using a Gel documentation system and Coomassie blue filter (Bio Rad, Hercules, Calif.).

For assay [2], the system named is E006AA cells. Briefly: Immunoblot analysis of CC in cytosolic and mitochondrial fractions. Particulars: in combination with DOC (24 hrs). The procedure:
Subcellular fractionation for the preparation of cytosolic and mitochondrial fractions: Cells were seeded on 15 cm cell culture plates followed by treatment with various compounds for the preparation of cytosolic and mitochondrial fractions as described. Cells were harvested via gentle scraping, washed twice with ice cold 1×PBS, and resuspended in homogenization buffer (20 mM HEPES, pH 7.4; 10 mM KCl; 1.5 mM MgCl2; 1 mM EDTA; 1 mM EGTA; 250 mM sucrose) supplemented with freshly added 1× protease inhibitor cocktail and 1 mM DTT. Cells were incubated in homogenization buffer for 30 min in ice and homogenized using a dounce homogenizer (˜25 strokes using pestle A). Cell homogenates were pre-cleared of unbroken cells and debris using centrifugation at 1000 g for 10 min. The supernatant was collected in new tubes and centrifuged at 12000 rpm for 20 min to obtain a mitochondrial pellet, which was washed 3 times with homogenization buffer and lysed in NP40 buffer, and stored as the mitochondrial fraction. The supernatant was ultra-centrifuged to obtain purified cytosol.
(§1) Immunoblotting: Immunoblotting was performed as described previously. Protein lysates were prepared using a lysis in NP-40 buffer (50 mM Tris-HCl pH 7.4, 150 mM NaCl, 1 mM EDTA, 1 mM EGTA, 1% NP-40) supplemented with protease and phosphatase inhibitor cocktail. Protein content was quantified using a micro BCA protein estimation kit (Thermo Scientific, Waltham, Mass.; Cat #23235). Protein samples were resolved on 4-20% Criterion gels, transferred on nitrocellulose membranes (BioRad, Hercules, Calif.) and subjected to immunoblotting. Membranes were blocked in 5% fat free dry milk (Blotto, Santa Cruz, Dallas, Tex.; Cat #sc-2324) prepared in PBS-T (Tween-20) and incubated overnight in primary antibodies (1:1000 dilution) at 4° C. with continuous shaking. After washing with PBS-T, membranes were incubated in HRP conjugated anti-mouse or anti-rabbit secondary antibody at room temperature for 1 hr. After washing with PBS-T, proteins were detected using Clarity chemiluminescent reagent (BioRad, Hercules, Calif.; Cat #1705061) and X-Ray films (ASI, Fort Lauderdale, Fla.; Cat #XR1570). Membranes were stripped using stripping buffer and probed with HRP conjugated beta-actin antibody to ensure equal loading of proteins.
(In western blotting, separated proteins are transferred to a membrane and probed.)

Assay [3] concerns E006AA cells. Briefly: Cell death quantification, Trypan blue exclusion assay. Particulars: combined treatment with DOC (24 hrs). The protocol:
Cell viability assay: PCa cells (5×10^4 cells/well) were seeded on 6-well cell culture plates and incubated with DOC (1-20 nM) for 24 hrs. Floating and attached cells were collected using trypsinization. Live and dead cells were counted under a light microscope using a trypan blue exclusion assay.

Assay [4] has as its system Nrf1 binding with CC promoter in E006AA cells. The assay is described as follows: Chromatin immunoprecipitation (ChIP) assay, Nrf1 binding with CC promoter. The protocol:
Chromatin immunoprecipitation (ChIP) assay: The association of Nrf1 transcription factor with CYCS promoter within the LNCaP and E006AA cells was detected using a chromatin immunoprecipitation (ChIP) Assay Kit (Millipore, Billerica, Mass.; Cat #17-295) according to the manufacturer's instructions. In brief, 1 million cells were fixed in formaldehyde for 15 min and chromatin was sheared using Bioruptor sonication device for 10 min in ice with 30 sec on/off cycle (Diagenode, Denville, N.J.). Ten μ1 sonicated samples (of 2 ml total volume) were separated as input. Chromatin was immunoprecipitated with 1.0 μg of Nrf1 or normal rabbit IgG (Santa Cruz Biotechnology) antibody at 4° C. overnight. Each sample (5 μl) was used as a template for PCR amplification and 20 μl of the 50 μl PCR product was loaded onto agarose gels. CYCS oligonucleotide sequence encompasses the CYCS promoter segment that includes the Nrf1 binding sites for PCR primers viz 5′-[…]-3′ [SEQ ID:7] and 5′-[…]-3′ [SEQ ID:8]. PCR mixtures were amplified for 1 cycle at 94° C. for 5 min followed by 35 cycles at 94° C. for 30 s, 55° C. for 30 s and 72° C. for 30 s, and then subjected to final elongation at 72° C. for 10 min. PCR products were run on 2% agarose gel and analyzed using ethidium bromide staining.

Assay [5] concerns E006AA cells. Briefly: Caspase-3 (DEVDase) activity assay. The procedure:
Caspase-3 (DEVDase) activity assay: PCa cell lysates prepared in NP40 lysis buffer were incubated with DEVD-AFC (caspase-3 substrate) at 37° C. for 90 min in caspase activity assay buffer (50 mM HEPES pH 7.4, 150 mM NaCl, 1% CHAPS, 1 mM EDTA, 1 mM DTT, 50% glycerol). Fluorescence intensity was detected using a Synergy microplate reader at excitation and emission wavelengths of 400 nm and 508 nm, respectively. Arbitrary fluorescence units were normalized with protein content of cell lysates and represented as fold change compared to control groups.

Assay [6] concerns E006AA cells. The assay is described as follows: Seahorse XF bioenergetics assay, glycolytic reserve capacity. Particulars: for glycolytic reserve capacity: in the presence of DOC, compared to control or DOC alone. The protocol: Seahorse XF bioenergetics assay: Basal glycolytic reserve capacity in PC-3, DU145, and […] PCa cells was assessed using an Agilent seahorse XF glycolytic stress test kit (Agilent Technologies Inc., Wilmington, Del.) and a Seahorse XF96 analyzer (Agilent Technologies Inc., Wilmington, Del.) analyzer as described. ATP production in […] cells after treatment with drug combinations was assessed using a Mito Stress test kit (Agilent Technologies Inc., Wilmington, Del.).

Assay [7] relates to p-Drp1^S616 in E006AA cells. Briefly: Immunoblot analysis of p-Drp1^S616 and Drp1. The settings on record: AA PCa cells; c-Myc I 75 μM, NF-κB I 50 μM, AKT Act 5 μM. The protocol:
as §1

In assay [8] the test system is E006AA cells. Briefly: Immunoblot analysis of CC, cleaved PARP and cleaved caspase-3 in whole cell lysates. Particulars: for CC expression: combined treatment with DOC (10 nM, 24 hrs), c-Myc I 75 μM, NF-κB I 50 μM, AKT Act 5 μM. The protocol: as §1
Where [9] appears, read: combined treatment with DOC (24 hrs).

Entries after “also recorded” stand apart in the source; their conditions may differ.

In the case of `CCc1ccc(/C=C2/SC(=S)NC2=O)cc1` [c-Myc inhibitor, 10058-F4], the “colony forming ability (CFA)” value in the assay on E006AA cells [1] (with DOC) and in the assay with E006AA cells [1] (without DOC) was “reduced the CFA” throughout. Further, the CC release result with E006AA cells [2] was “CC release only in combination treatment; also recorded: resulted in CC release”. Moreover, the cell death entry in the assay on E006AA cells [3] is “enhanced cell death”. Besides, the “binding of Nrf1 to the CC promoter” value in assay [4] (agent alone) and in assay [4] (combined with DOC (24 hrs)) was “enhanced binding of Nrf1 to the CC promoter” throughout. Also, the values for the caspase-3 activation result in the assay with E006AA cells [5] (agent alone) and with E006AA cells [5] (setting [9]) were “only a modest increase” and “increased caspase-3 activation”, respectively. Besides, the glycolytic reserve capacity entry in the assay with E006AA cells [6] is on record as “inhibited glycolytic reserve capacity”. Besides, the “levels of p-Drp1^S616” value in assay [7] was “increased the levels of p-Drp1^S616”. The PARP cleavage entry in the assay with E006AA cells [8] (agent alone) is reported as “only a modest increase”; with E006AA cells [8] (setting [9]) it was “PARP cleavage”. The CC expression entry in the assay with E006AA cells [8] is given as “Increased CC expression”.
As for “bisperoxovanadium 5-hydroxipyridine [AKT activator]”, the “colony forming ability (CFA)” value with E006AA cells [1] (with DOC) and in the assay on E006AA cells [1] (without DOC) was “reduced the CFA” in each case. For the same compound, the CC release result with E006AA cells [2] is “CC release only in combination treatment; also recorded: resulted in CC release”. Also, the cell death result in the assay on E006AA cells [3] is given as “enhanced cell death”. Also, the “binding of Nrf1 to the CC promoter” value in assay [4] (agent alone) and in assay [4] (combined with DOC (24 hrs)) was “enhanced binding of Nrf1 to the CC promoter” each time. Also, the caspase-3 activation result in the assay on E006AA cells [5] (agent alone) is reported as “only a modest increase”; in the assay on E006AA cells [5] (setting [9]) it was “increased caspase-3 activation”. Besides, the glycolytic reserve result in the assay on E006AA cells [6] (agent alone) is listed as “inhibited glycolytic reserve”. Also, the glycolytic reserve capacity result in the assay with E006AA cells [6] was “inhibited glycolytic reserve capacity”. Also, the “levels of p-Drp1^S616” value in assay [7] is listed as “increased the levels of p-Drp1^S616”. The PARP cleavage entry was “only a modest increase” in the assay on E006AA cells [8] (agent alone) and “PARP cleavage” in the assay on E006AA cells [8] (setting [9]). Further, in the assay on E006AA cells [8], the CC expression result is recorded as “Increased CC expression”.
For `Cc1ccc(NCCCc2ccccc2)c(N)c1` [NF-κB inhibitor, JSH-23], the “colony forming ability (CFA)” value in the assay with E006AA cells [1] (with DOC) and in the assay with E006AA cells [1] (without DOC) was “reduced the CFA” each time. Further, in the assay with E006AA cells [2], the CC release entry is on record as “resulted in CC release”. Further, the cell death result in the assay with E006AA cells [3] is given as “enhanced cell death”. Moreover, the “binding of Nrf1 to the CC promoter” value in assay [4] (agent alone) and in assay [4] (combined with DOC (24 hrs)) was “enhanced binding of Nrf1 to the CC promoter” throughout. The caspase-3 activation entry in the assay on E006AA cells [5] (agent alone) was “only a modest increase”; with E006AA cells [5] (setting [9]), “increased caspase-3 activation”. The glycolytic reserve capacity entry in the assay on E006AA cells [6] is on record as “inhibited glycolytic reserve capacity”. The “levels of p-Drp1^S616” value in assay [7] was “increased the levels of p-Drp1^S616”. For the same compound, the PARP cleavage result is given as “only a modest increase” with E006AA cells [8] (agent alone) and “PARP cleavage” in the assay with E006AA cells [8] (setting [9]). The CC expression result in the assay with E006AA cells [8] is listed as “Increased CC expression”.
